# Measurements taken from paper PMC9954146, “Anti-Leukaemic Activity of Rilpivirine Is Mediated by Aurora A Kinase Inhibition” (Cancers, 2023).
# Columns and labels:
# Assay in all cases: Kinase panel
# Assay type in all cases: biochemical
# SAPK2a(T106M)(h) = target: T1, SAPK2a(T106M)(h) (Homo sapiens, UniProt Q16539, T106M); conditions: read-out: % Residual Activity
# T1 construct: purchased Eurofins (KinaseProfiler)
# Procedure: (§1) Kinome-wide selectivity of rilpivirine was measured using the kinase screening and profiling service of Eurofins Scientific (Le bois l’Evêque 86600. Celle-Lévescault, France) and Ki values were determined using radioisotope-based assays by Reaction Biology Corporation (Malvern, PA, USA). The experimental details of Eurofin Scientific and Reaction Biology services for relevant assays are available at https://www.eurofinsdiscoveryservices.com/services/in-Vitro-assays/kinases/kinase-profiler (accessed on 7 July 2021) and https://www.reactionbiology.com (accessed on 7 July 2021), respectively. Ki values were estimated from the corresponding IC50 values using the Cheng–Prusoff equation [21] and the Km (ATP) of individual kinase was used for IC50 determination.
# LATS2(h) = target: T2, LATS2(h) (Homo sapiens, UniProt Q9NRM7); conditions: read-out: % Residual Activity
# T2 construct: purchased Eurofins (KinaseProfiler)
# Procedure: as §1
# CDK5/p35(h) = target: T3, CDK5/p35(h) (Homo sapiens, UniProt Q00535); conditions: read-out: % Residual Activity
# T3 construct: purchased Eurofins (KinaseProfiler)
# Procedure: as §1
# IRR(h) = target: T4, IRR(h) (Homo sapiens, UniProt P14616); conditions: read-out: % Residual Activity
# T4 construct: purchased Eurofins (KinaseProfiler)
# Procedure: as §1
# ZAP-70(h) = target: T5, ZAP-70(h) (Homo sapiens, UniProt P43403); conditions: read-out: % Residual Activity
# T5 construct: purchased Eurofins (KinaseProfiler)
# Procedure: as §1
# Rsk3(h) = target: T6, Rsk3(h) (Homo sapiens, UniProt Q15349); conditions: read-out: % Residual Activity
# T6 construct: purchased Eurofins (KinaseProfiler)
# Procedure: as §1
# PI3 Kinase (p120g)(h) = target: T7, PI3 Kinase (p120g)(h) (Homo sapiens, UniProt P48736); conditions: read-out: % Residual Activity
# T7 construct: purchased Eurofins (KinaseProfiler)
# Procedure: as §1
# Rsk2(h) = target: T8, Rsk2(h) (Homo sapiens, UniProt P51812); conditions: read-out: % Residual Activity
# T8 construct: purchased Eurofins (KinaseProfiler)
# Procedure: as §1
# Aurora-C(h) = target: T9, Aurora-C(h) (Homo sapiens, UniProt Q9UQB9); conditions: read-out: % Residual Activity
# T9 construct: purchased Eurofins (KinaseProfiler)
# Procedure: as §1
# NEK9(h) = target: T10, NEK9(h) (Homo sapiens, UniProt Q8TD19); conditions: read-out: % Residual Activity
# T10 construct: purchased Eurofins (KinaseProfiler)
# Procedure: as §1
# Abl(h) = target: T11, Abl(h) (Homo sapiens, UniProt P00519); conditions: read-out: % Residual Activity
# T11 construct: purchased Eurofins (KinaseProfiler)
# Procedure: as §1
# PAK2(h) = target: T12, PAK2(h) (Homo sapiens, UniProt Q13177); conditions: read-out: % Residual Activity
# T12 construct: purchased Eurofins (KinaseProfiler)
# Procedure: as §1
# Met(Y1248D)(h) = target: T13, Met(Y1248D)(h) (Homo sapiens, UniProt P08581, Y1230D); conditions: read-out: % Residual Activity
# T13 construct: purchased Eurofins (KinaseProfiler)
# Procedure: as §1
# Blk(h) = target: T14, Blk(h) (Homo sapiens, UniProt P51451); conditions: read-out: % Residual Activity
# T14 construct: purchased Eurofins (KinaseProfiler)
# Procedure: as §1
# TAK1(h) = target: T15, TAK1(h) (Homo sapiens, UniProt O43318); conditions: read-out: % Residual Activity
# T15 construct: purchased Eurofins (KinaseProfiler)
# Procedure: as §1
# CDK13/cyclinK(h) = target: T16, CDK13/cyclinK(h) (Homo sapiens, UniProt Q14004); conditions: read-out: % Residual Activity
# T16 construct: purchased Eurofins (KinaseProfiler)
# Procedure: as §1
# FGFR1(V561M)(h) = target: T17, FGFR1(V561M)(h) (Homo sapiens, UniProt P11362, V561M); conditions: read-out: % Residual Activity
# T17 construct: purchased Eurofins (KinaseProfiler)
# Procedure: as §1
# EphA3(h) = target: T18, EphA3(h) (Homo sapiens, UniProt P29320); conditions: read-out: % Residual Activity
# T18 construct: purchased Eurofins (KinaseProfiler)
# Procedure: as §1
# Lyn(h) = target: T19, Lyn(h) (Homo sapiens, UniProt P07948)
# T19 construct: purchased Eurofins (KinaseProfiler)
# Procedure: as §1
# MKK4(m) = target: T20, MKK4(m) (Mus musculus, UniProt P47809); conditions: read-out: % Residual Activity
# T20 construct: purchased Eurofins (KinaseProfiler)
# Procedure: as §1
# MAPKAP-K2(h) = target: T21, MAPKAP-K2(h) (Homo sapiens, UniProt P49137); conditions: read-out: % Residual Activity
# T21 construct: purchased Eurofins (KinaseProfiler)
# Procedure: as §1
# HIPK1(h) = target: T22, HIPK1(h) (Homo sapiens, UniProt Q86Z02); conditions: read-out: % Residual Activity
# T22 construct: purchased Eurofins (KinaseProfiler)
# Procedure: as §1
# MAPKAP-K3(h) = target: T23, MAPKAP-K3(h) (Homo sapiens, UniProt Q16644); conditions: read-out: % Residual Activity
# T23 construct: purchased Eurofins (KinaseProfiler)
# Procedure: as §1
# ALK4(h) = target: T24, ALK4(h) (Homo sapiens, UniProt P36896); conditions: read-out: % Residual Activity
# T24 construct: purchased Eurofins (KinaseProfiler)
# Procedure: as §1
# Met(Y1248H)(h) = target: T25, Met(Y1248H)(h) (Homo sapiens, UniProt P08581, Y1230H); conditions: read-out: % Residual Activity
# T25 construct: purchased Eurofins (KinaseProfiler)
# Procedure: as §1
# ALK2(h) = target: T26, ALK2(h) (Homo sapiens, UniProt Q04771); conditions: read-out: % Residual Activity
# T26 construct: purchased Eurofins (KinaseProfiler)
# Procedure: as §1
# ErbB4(h) = target: T27, ErbB4(h) (Homo sapiens, UniProt Q15303); conditions: read-out: % Residual Activity
# T27 construct: purchased Eurofins (KinaseProfiler)
# Procedure: as §1
# MSK2(h) = target: T28, MSK2(h) (Homo sapiens, UniProt O75676); conditions: read-out: % Residual Activity
# T28 construct: purchased Eurofins (KinaseProfiler)
# Procedure: as §1
# IGF-1R(h) = target: T29, IGF-1R(h) (Homo sapiens, UniProt P08069); conditions: read-out: % Residual Activity
# T29 construct: purchased Eurofins (KinaseProfiler)
# Procedure: as §1
# MELK(h) = target: T30, MELK(h) (Homo sapiens, UniProt Q14680); conditions: read-out: % Residual Activity
# T30 construct: purchased Eurofins (KinaseProfiler)
# Procedure: as §1
# [1] = target: T31, PI3 Kinase (p110a(E545K)/p85a)(m) (Mus musculus, UniProt P42337, E545K); conditions: read-out: % Residual Activity
# T31 construct: purchased Eurofins (KinaseProfiler)
# Procedure: as §1
# STK39(h) = target: T32, STK39(h) (Homo sapiens, UniProt Q9UEW8); conditions: read-out: % Residual Activity
# T32 construct: purchased Eurofins (KinaseProfiler)
# Procedure: as §1
# MRCKα(h) = target: T33, MRCKα(h) (Homo sapiens, UniProt Q5VT25); conditions: read-out: % Residual Activity
# T33 construct: purchased Eurofins (KinaseProfiler)
# Procedure: as §1
# NEK7(h) = target: T34, NEK7(h) (Homo sapiens, UniProt Q8TDX7); conditions: read-out: % Residual Activity
# T34 construct: purchased Eurofins (KinaseProfiler)
# Procedure: as §1
# DRAK2(h) = target: T35, DRAK2(h) (Homo sapiens, UniProt O94768); conditions: read-out: % Residual Activity
# T35 construct: purchased Eurofins (KinaseProfiler)
# Procedure: as §1
# DRAK1(h) = target: T36, DRAK1(h) (Homo sapiens, UniProt Q9UEE5); conditions: read-out: % Residual Activity
# T36 construct: purchased Eurofins (KinaseProfiler)
# Procedure: as §1
# BrSK1(h) = target: T37, BrSK1(h) (Homo sapiens, UniProt Q8TDC3); conditions: read-out: % Residual Activity
# T37 construct: purchased Eurofins (KinaseProfiler)
# Procedure: as §1
# NEK3(h) = target: T38, NEK3(h) (Homo sapiens, UniProt P51956); conditions: read-out: % Residual Activity
# T38 construct: purchased Eurofins (KinaseProfiler)
# Procedure: as §1
# T19 sequence (P07948 whole entry): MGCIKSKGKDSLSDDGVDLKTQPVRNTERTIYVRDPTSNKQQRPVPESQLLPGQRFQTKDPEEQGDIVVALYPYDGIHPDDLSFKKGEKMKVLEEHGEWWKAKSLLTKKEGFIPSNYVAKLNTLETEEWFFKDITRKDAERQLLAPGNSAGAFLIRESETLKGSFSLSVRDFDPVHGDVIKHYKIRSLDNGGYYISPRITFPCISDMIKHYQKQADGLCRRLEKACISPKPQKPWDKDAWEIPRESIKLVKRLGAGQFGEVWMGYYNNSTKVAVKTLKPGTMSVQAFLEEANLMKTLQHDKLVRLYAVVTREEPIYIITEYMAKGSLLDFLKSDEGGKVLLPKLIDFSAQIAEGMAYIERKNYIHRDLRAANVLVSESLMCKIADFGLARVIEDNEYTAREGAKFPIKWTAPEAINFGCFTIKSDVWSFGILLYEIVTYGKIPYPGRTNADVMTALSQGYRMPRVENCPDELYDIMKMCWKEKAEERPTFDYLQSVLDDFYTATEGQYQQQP
# T9 sequence (Q9UQB9 whole entry): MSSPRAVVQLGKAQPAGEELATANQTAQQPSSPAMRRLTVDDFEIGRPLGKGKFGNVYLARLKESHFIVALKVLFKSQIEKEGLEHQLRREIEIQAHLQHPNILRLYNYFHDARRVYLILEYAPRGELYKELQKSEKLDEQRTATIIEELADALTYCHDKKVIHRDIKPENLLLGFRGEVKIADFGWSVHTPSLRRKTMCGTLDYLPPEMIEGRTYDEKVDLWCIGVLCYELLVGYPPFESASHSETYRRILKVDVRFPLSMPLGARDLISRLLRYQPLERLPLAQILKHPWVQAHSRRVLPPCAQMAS
# T16 sequence (Q14004 whole entry): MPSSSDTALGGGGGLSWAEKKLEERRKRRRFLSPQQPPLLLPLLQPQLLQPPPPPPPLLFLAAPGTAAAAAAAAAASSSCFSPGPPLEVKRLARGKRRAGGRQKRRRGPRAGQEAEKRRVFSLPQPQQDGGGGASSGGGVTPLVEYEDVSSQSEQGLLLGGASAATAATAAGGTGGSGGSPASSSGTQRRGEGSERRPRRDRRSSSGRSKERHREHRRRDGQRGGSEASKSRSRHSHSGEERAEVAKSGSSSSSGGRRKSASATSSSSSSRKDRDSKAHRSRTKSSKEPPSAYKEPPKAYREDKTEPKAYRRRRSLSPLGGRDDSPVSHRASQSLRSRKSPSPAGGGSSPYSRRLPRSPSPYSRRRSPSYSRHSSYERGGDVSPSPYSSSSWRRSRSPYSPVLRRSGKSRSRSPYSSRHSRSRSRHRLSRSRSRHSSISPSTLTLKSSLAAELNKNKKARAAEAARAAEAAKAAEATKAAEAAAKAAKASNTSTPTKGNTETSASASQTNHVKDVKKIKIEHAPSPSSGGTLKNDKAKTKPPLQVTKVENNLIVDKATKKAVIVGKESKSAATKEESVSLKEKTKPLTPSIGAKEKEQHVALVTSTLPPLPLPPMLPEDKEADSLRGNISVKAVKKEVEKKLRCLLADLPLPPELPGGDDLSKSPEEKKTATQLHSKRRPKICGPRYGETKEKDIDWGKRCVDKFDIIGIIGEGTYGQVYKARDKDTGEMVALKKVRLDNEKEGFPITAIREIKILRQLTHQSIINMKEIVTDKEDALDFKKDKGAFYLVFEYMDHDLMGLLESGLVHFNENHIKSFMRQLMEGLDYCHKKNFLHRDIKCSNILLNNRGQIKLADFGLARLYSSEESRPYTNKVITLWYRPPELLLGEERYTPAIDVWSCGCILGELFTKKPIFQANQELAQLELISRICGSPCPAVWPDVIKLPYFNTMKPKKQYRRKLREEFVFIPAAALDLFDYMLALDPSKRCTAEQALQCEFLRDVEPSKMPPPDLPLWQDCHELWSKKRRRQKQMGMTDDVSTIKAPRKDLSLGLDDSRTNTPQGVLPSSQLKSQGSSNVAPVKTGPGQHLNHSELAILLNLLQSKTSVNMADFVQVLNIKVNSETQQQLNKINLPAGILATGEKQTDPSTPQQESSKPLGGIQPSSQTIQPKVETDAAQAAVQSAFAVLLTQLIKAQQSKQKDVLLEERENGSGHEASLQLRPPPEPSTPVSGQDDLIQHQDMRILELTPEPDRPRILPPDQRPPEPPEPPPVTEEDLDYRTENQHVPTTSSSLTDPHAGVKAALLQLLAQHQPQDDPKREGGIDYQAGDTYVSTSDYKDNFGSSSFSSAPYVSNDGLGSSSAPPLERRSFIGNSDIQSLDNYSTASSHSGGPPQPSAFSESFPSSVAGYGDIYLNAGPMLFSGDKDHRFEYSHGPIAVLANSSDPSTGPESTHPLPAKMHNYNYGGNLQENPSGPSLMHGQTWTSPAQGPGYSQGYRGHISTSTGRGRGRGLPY
# T16 sequence (O75909 whole entry partner): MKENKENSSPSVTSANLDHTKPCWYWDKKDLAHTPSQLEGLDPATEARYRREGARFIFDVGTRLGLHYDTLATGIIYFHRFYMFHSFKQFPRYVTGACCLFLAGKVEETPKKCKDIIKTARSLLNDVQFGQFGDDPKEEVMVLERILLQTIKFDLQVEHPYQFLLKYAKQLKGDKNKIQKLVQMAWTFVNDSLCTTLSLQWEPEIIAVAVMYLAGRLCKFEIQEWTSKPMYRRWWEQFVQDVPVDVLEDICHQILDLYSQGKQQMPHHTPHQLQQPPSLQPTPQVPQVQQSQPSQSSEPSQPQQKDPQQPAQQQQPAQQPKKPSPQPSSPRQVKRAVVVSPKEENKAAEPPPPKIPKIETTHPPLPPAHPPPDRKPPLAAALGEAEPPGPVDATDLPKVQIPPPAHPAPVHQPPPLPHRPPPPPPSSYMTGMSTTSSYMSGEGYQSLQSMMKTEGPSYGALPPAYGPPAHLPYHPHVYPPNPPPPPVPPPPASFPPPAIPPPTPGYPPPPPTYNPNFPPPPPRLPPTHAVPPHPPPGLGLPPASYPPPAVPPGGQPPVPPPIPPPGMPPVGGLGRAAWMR
# T14 sequence (P51451 whole entry): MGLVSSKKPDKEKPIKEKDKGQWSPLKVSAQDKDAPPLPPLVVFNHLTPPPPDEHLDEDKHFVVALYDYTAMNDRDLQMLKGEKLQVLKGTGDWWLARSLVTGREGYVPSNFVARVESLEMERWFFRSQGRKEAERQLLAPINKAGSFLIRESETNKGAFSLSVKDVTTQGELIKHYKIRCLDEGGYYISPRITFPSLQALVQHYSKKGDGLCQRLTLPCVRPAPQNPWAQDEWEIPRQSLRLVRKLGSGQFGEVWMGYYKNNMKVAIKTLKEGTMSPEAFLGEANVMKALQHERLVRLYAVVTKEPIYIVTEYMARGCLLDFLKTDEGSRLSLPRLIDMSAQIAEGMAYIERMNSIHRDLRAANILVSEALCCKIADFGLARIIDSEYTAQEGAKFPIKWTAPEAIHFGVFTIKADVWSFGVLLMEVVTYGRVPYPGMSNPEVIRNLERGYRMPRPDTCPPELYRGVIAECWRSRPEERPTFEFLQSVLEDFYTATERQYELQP
# T25 sequence (P08581 956-1390 Y1230H limits assumed): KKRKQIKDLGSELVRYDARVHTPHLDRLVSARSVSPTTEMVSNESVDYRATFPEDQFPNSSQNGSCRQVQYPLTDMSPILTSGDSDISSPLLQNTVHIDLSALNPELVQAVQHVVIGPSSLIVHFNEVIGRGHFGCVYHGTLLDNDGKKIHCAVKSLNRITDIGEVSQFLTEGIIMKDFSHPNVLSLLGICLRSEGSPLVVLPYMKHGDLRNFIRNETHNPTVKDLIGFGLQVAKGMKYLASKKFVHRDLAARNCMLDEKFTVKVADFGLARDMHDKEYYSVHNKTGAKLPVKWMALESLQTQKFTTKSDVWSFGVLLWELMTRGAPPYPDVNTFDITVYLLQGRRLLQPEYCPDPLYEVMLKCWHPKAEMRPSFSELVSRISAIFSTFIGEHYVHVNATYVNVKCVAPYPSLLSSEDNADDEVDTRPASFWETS
# T12 sequence (Q13177 whole entry): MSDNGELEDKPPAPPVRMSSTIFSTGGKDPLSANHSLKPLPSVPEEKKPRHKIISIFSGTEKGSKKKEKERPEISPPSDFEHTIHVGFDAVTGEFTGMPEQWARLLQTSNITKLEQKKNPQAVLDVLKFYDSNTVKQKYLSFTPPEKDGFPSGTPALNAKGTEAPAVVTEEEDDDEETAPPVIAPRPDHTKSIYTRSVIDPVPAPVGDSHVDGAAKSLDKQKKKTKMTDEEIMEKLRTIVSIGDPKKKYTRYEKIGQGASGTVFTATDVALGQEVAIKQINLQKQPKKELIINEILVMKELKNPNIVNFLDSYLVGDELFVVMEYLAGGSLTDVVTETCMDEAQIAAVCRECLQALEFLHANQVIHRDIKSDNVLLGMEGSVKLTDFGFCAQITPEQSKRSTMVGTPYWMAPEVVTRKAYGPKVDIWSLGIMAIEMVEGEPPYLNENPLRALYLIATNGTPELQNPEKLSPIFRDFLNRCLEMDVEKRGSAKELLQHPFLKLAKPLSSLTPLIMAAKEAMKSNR
# T1 sequence (Q16539 whole entry T106M): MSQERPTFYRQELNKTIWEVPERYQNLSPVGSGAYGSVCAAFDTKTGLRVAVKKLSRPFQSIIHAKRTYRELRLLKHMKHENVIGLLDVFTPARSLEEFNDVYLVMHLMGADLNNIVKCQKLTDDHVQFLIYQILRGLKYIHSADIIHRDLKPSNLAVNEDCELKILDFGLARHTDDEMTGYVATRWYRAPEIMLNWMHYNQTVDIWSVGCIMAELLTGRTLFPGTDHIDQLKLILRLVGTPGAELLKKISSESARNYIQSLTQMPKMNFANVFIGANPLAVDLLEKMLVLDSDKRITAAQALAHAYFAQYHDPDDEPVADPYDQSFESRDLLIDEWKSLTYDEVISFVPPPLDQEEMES
compound,measurement,setting,value
"Cc1cc(/C=C/C#N)cc(C)c1Nc1ccnc(Nc2ccc(C#N)cc2)n1 [rilpivirine, (E)-4-((4-((4-(2-cyanoethenyl)-2,6-dimethylphenyl)amino)pyrimidin-2-yl)amino)benzonitrile]",remaining activity at 1 µM,SAPK2a(T106M)(h),90%
same,remaining activity at 1 µM,LATS2(h),80%
same,remaining activity at 1 µM,CDK5/p35(h),97%
same,remaining activity at 1 µM,IRR(h),95%
same,remaining activity at 1 µM,ZAP-70(h),97%
same,remaining activity at 1 µM,Rsk3(h),86%
same,remaining activity at 1 µM,PI3 Kinase (p120g)(h),87%
same,remaining activity at 1 µM,Rsk2(h),82%
same,remaining activity at 1 µM,Aurora-C(h),93%
same,remaining activity at 1 µM,NEK9(h),90%
same,remaining activity at 1 µM,Abl(h),86%
same,remaining activity at 1 µM,PAK2(h),89%
same,remaining activity at 1 µM,Met(Y1248D)(h),100%
same,remaining activity at 1 µM,Blk(h),73%
same,remaining activity at 1 µM,TAK1(h),105%
same,remaining activity at 1 µM,CDK13/cyclinK(h),82%
same,remaining activity at 1 µM,FGFR1(V561M)(h),97%
same,remaining activity at 1 µM,EphA3(h),86%
same,inhibition at 1 µM,"Lyn(h); LYN, read-out: inhibitory activity",> 70%
same,remaining activity at 1 µM,Lyn(h); read-out: % Residual Activity,23%
same,remaining activity at 1 µM,MKK4(m),84%
same,remaining activity at 1 µM,MAPKAP-K2(h),100%
same,remaining activity at 1 µM,HIPK1(h),97%
same,remaining activity at 1 µM,MAPKAP-K3(h),90%
same,remaining activity at 1 µM,ALK4(h),79%
same,remaining activity at 1 µM,Met(Y1248H)(h),98%
same,remaining activity at 1 µM,ALK2(h),91%
same,remaining activity at 1 µM,ErbB4(h),88%
same,remaining activity at 1 µM,MSK2(h),105%
same,remaining activity at 1 µM,IGF-1R(h),89%
same,remaining activity at 1 µM,MELK(h),56%
same,remaining activity at 1 µM,[1],97%
same,remaining activity at 1 µM,STK39(h),95%
same,remaining activity at 1 µM,MRCKα(h),86%
same,remaining activity at 1 µM,NEK7(h),110%
same,remaining activity at 1 µM,DRAK2(h),107%
same,remaining activity at 1 µM,DRAK1(h),76%
same,remaining activity at 1 µM,BrSK1(h),84%
same,remaining activity at 1 µM,NEK3(h),91%
